What follows are compounds tested on D54 ERlucT glycosylation luciferase reporter, luminescence, 24 h (assay: N-linked glycosylation inhibitors, luciferase reporter, dose response, D54 ERlucT cells, luminescence, cherry-picks (AID 624491);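 note: signal gain reflects blocked N-linked glycosylation of a luciferase reporter; actives raise luciferase signal so AC26 marks activators of the reporter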).

Compound	AC26 [nM]
CC[C@]12c3[nH]c4cc(CCC(=O)N(C)C)ccc4c3CCN1C(=O)[C@@H](CC(=O)NC/C=C(\C)CCC=C(C)C)C[C@@H]2C(=O)N1CCN(C(=O)c2ccco2)CC1	2860
COc1cc2c(cc1OC)C(c1ccccc1)N(C(=O)c1ccco1)CC2 (configuration not stated)	315
CCOc1ccc2[nH]c(C(=O)N/N=C/c3cc(OC)c(OC)c(OC)c3)cc2c1	1320
CCOc1nc(N=C(N)N)nc2c(C)cccc12	2480
Cc1ccc(C(=O)N/C(=C\c2cccs2)C(=O)NCCc2c[nH]c3ccccc23)cc1	378
COc1cc(C#Cc2ccc3cc(CCCO)oc(=O)c3c2)cc(OC)c1	161
Cc1ccc(CNC(=O)Cc2ccc(Br)cc2)cc1	6690
Cc1ccc(S(=O)(=O)c2cc3c(=O)n4ccccc4nc3n(CCc3ccccc3)c2=N)cc1	84.5
COc1cc(/C=C2/CCC/C(=C\c3cc(O)c(OC)c(Cl)c3)C2=O)cc(Cl)c1O	2230
CCN(CC)CCNc1ccc(CO)c2oc3cc(Cl)ccc3c(=O)c12	2820
COc1ccccc1NS(=O)(=O)c1ccc(-c2cc(C)no2)s1	5830
Cc1cc(=O)[nH]c(N/N=C/c2cc(C)n(CC(F)(F)F)c2C)n1	47.6
O=c1cc(-c2ccc(O)cc2)oc2cc(O)c(C3OC(CO)C(O)C(O)C3O)c(O)c12 (configuration not stated)	690
O=c1[nH]c(=O)n([C@H]2C[C@H](O)[C@@H](CO)O2)cc1Br	1690
COc1cc2[nH]c(C(=O)Nc3ccc(F)cc3)cc2c(OC)c1OC	742
CCCCC[C@H](O)/C=C/[C@@H]1[C@@H](C/C=C\CCCC(=O)OC)[C@@H](O)C[C@H]1O	10.5
COc1ccc(Nc2cc(C)nc3ccc(OC)cc23)cc1	1830
O=c1[nH]c(CSc2ncnc3sc(-c4ccccc4)cc23)nc2ccccc12	4470
Cc1ccc(-c2nc(C(=O)NCCCN(C)C)cc3c2[nH]c2ccccc23)cc1	4300
COCCOC(=O)c1[nH]c2c(c1C)C(=O)CC(c1ccco1)C2 (configuration not stated)	3540
CN(C)S(=O)(=O)c1ccc(N2CCCC2)c(C(=O)Nc2nccs2)c1	549
COc1ccc(CCn2c(=N)c(C(=O)NCc3ccco3)cc3c(=O)n4ccccc4nc32)cc1OC	6410

Compound	AC26 [nM]
Cc1ccc(-n2c(SCC(=O)NCCC3=CCCCC3)nc3n[nH]c(C)c3c2=N)cc1Cl	6130
COC(=O)C(=Cc1ccc(-c2ccsc2C(=O)OC)o1)C(=O)OC	9800
Cc1cc(C)n(-c2nnc3n2N=C(c2c[nH]c4ccccc24)CS3)n1	3510
CN(C)CCCN1C(=O)c2cccc3c([N+](=O)[O-])ccc(c23)C1=O	169
Cc1ccc2nc(/C(C#N)=C/c3cn[nH]c3-c3ccc(F)cc3)[nH]c2c1	1170
COc1ccc(CCCC(=O)NCc2ccccc2)cc1C	6540
Cc1cc(C)cc(-n2c3ccc(NC(=O)Cc4cccc5ccccc45)cc3c(=O)n2C)c1	1780
CCc1ccc(C(=O)Nc2ccc3c(c2)n(C)c(=O)n3C)cc1	6220
COc1ccccc1NS(=O)(=O)c1ccc(C(=O)Nc2ncccc2O)cc1	7090
CN(C)CCOc1nc(-c2ccccc2)nc2c1oc1ccccc12	2700
Cn1c(=O)n(C)c2cc(C(=O)Nc3ccc4c(c3)OCO4)ccc21	1740
CC(=O)C1=C(C)OC(N)=C(C#N)C1c1cc([N+](=O)[O-])ccc1Cl (configuration not stated)	2900
Cc1cccc(C(=O)Nc2cc(S(=O)(=O)N3CCOCC3)ccc2N2CCCC2)c1	173
CC(=O)Nc1ccc(NC(=O)c2ccc(-c3c(C)noc3C)c3ccoc23)cc1	1350
Oc1ccc(CCNc2c3ccccc3nc3ccccc23)cc1O	638
Cc1ccc2c(c1)cc(CN(C(=O)N1CCOCC1)C1CCCC1)c1nnnn12	4120
CC1=CC(C)[C@H](/C=N/n2c(=O)[nH]c3c([nH]c4ccc(Br)cc43)c2=O)C(C)C1 (some centres not stated)	3780
CN(C)CCCN1C(=O)c2cccc3c(Br)ccc(c23)C1=O	871
COc1cccc(C2=NOC(C(=O)NCc3ccc(F)cc3)C2)c1 (configuration not stated)	1160
O=c1cc(-c2ccccc2)nc2cc(-c3ccc(F)cc3)[nH]n12	4270
COc1ccc(NC(=O)C2(C)Cc3c(-c4cccc(NC(C)=O)c4)ccnc3O2)cn1 (configuration not stated)	10100
COC(=O)c1ccc(C)c(NC(=O)CN(c2cc(OC)ccc2OC)S(C)(=O)=O)c1	641

Compound	AC26 [nM]
COc1ccc(OC)c(S(=O)(=O)Nc2ccc3c(c2)n(C)c(=O)n3C)c1	3320
O=C(NCCc1ccccc1)c1coc(=O)c(Br)c1	1530
COc1ccc2c(c1)OC[C@H]1[C@H]2N2C(=O)c3ccc(F)cc3NC(=O)[C@@]2(C)[C@H]1c1ccccc1	1230
N=c1c(C(=O)NCc2ccco2)cc2c(=O)n3ccccc3nc2n1CCc1ccccc1	707
COc1cc(NC(=O)NCc2ccco2)ccc1-c1ccc(NC(=O)NCc2ccco2)cc1OC	4350
COc1cc2c(C(=O)N3CCN(c4cccc(Cl)c4)CC3)cn(C)c(=O)c2cc1OC	3400
COc1cc(-c2noc(C)c2/C=C/c2ccc(OC(C)=O)cc2)cc(OC)c1OC	494
Cc1cc(C)nc(SC2CC(=O)N(c3ccc(C)c(C)c3)C2=O)n1 (configuration not stated)	14300
CC(C)N(CC(=O)Nc1ccc(Cl)cc1C(F)(F)F)C(=O)CCl	14500
CCN(CC)c1ccc(NC(=O)c2cc(OC)cc(OC)c2)c(C)c1	932
CCOC(=O)c1c(C)[nH]c(C(=O)N/N=C/c2ccc(OC)c(OC)c2)c1C	2070
CN1C(=O)CSc2ccc(NC(=O)Nc3ccccn3)cc21	4260
CC1(C(=O)NCc2ccc(F)c(F)c2)Cc2c(-c3ccc4c(c3)OCO4)ccnc2O1 (configuration not stated)	6730
OCCCCCN=c1cc(-c2ccccc2)oc2ccc(Cl)cc12	1970
COc1cccc(N2CCN(C(=O)c3ccc(CS(=O)c4ccc(Cl)cc4)o3)CC2)c1 (configuration not stated)	234
O=c1[nH]c(-c2ccccc2)nc2sc(-c3ccccc3)cc12	2320
Cc1ccc(N=Nc2c(N)nn(-c3ccccc3)c2N)cc1	602
COc1ccc(/C(C)=N/NC(=O)c2ccccc2OCc2ccccc2)c(OC)c1	121
COc1ccc(N2CCc3c(C)nc4c(OC)cc(OC)cc4c32)cc1	3770
CN1C(=O)C(=Cc2sc(=O)n(-c3ccccc3)c2N(C)C)C(=O)N(C)C1=O	5320
Nc1cccc2c1C(=O)N(C(=O)/C=C/c1ccc(F)cc1)C2=O	6790
Cc1cccc2sc(NC(=O)c3cc(S(=O)(=O)N(C)C)ccc3N3CCCC3)nc12	157

Compound	AC26 [nM]
COc1ccc(NC(=O)c2cccc3c(-c4ccc(O)c(OC)c4)coc23)cc1	13400
O=C(Nc1cc(Cl)ccc1N1CCOCC1)c1ccc(N2CCCC2=O)cc1	108
Cc1ccc(O)c(C(=O)C=Cc2ccccc2)c1	1210
Cc1nnc2c3ccccc3c(-c3ccccc3)nn12	2870
CCN(CC)CCC(=O)Nc1cccc2c1C(=O)c1ccccc1C2=O	965
COc1cc(C(=O)OCCCN2CCCN(CCCOC(=O)c3cc(OC)c(OC)c(OC)c3)CC2)cc(OC)c1OC	1550
Cc1ccc(-c2nc3ncccc3o2)cc1NC(=O)c1ccc([N+](=O)[O-])o1	4010
Cc1cc(C)c2c(N)c3ccccc3nc2n1	762
COc1ccccc1NC(=O)/C=C/c1ccc2c(c1)OCO2	3780
COC(=O)c1ccc(C(=O)NC2CC(C)(C)Cc3c2cnn3-c2ccc(F)cc2)nc1 (configuration not stated)	4170
C=CCn1c(SCc2c(C)noc2C)nc2ccccc2c1=O	163
Cc1ccc(-c2cnc(C3CC3)o2)cc1S(=O)(=O)Nc1ccccc1	9070
Fc1ccc(CSc2ccc3nnc(-c4cccnc4)n3n2)cc1	403
CCC(C)C(=O)OC1CCC=C2C=CC(C)C(CCC3CC(O)CC(=O)O3)C21 (configuration not stated)	34.8
CC(=O)c1c(C)[nH]c(C(=O)Nc2cccc(S(=O)(=O)N3CCCC3)c2)c1C	2610
CN(C)CCCNc1cc(-c2ccccc2)nc2cc(-c3cccc(F)c3)nn12	5210
COCCCNC(=O)c1ccc(-c2c(C)noc2C)c2ccoc12	4060
c1ccc2c(c1)oc1c(-c3ccc4nccn4c3)cccc12	8270
Cc1ccc(S(=O)(=O)Nc2ccc3c(c2)n(C)c(=O)n3C)cc1	1460
OCCCNc1c2ccccc2nc2ccccc12	467
COc1ccc2c(c1)CCc1c(C(=O)Nc3cc(C)n(Cc4ccc(Cl)cc4)n3)noc1-2	3370
COc1cc2c(cc1OC)C(c1ccccc1)N(C(=O)c1cccc(S(C)(=O)=O)c1)CC2 (configuration not stated)	193

Compound	AC26 [nM]
Cc1ccc(-c2cc(C(=O)NCC(c3ccccc3)N(C)C)c3ccccc3n2)o1 (configuration not stated)	11400
CCOC(=O)c1[nH]c2c(c1-c1ccccc1)C(=O)CC(c1ccccc1)C2 (configuration not stated)	1480
COc1cccc(/C=C2\SC(=S)N(CCC(=O)N3CCCCC3)C2=O)c1	5770
COCCNc1nc(NCc2ccccc2)nc2ccsc12	136
COc1ccc(-c2cc(C(=O)NCC(c3ccccc3)N(C)C)c3ccccc3n2)cc1OC (configuration not stated)	1320
Cc1cc(NC(=O)NC(=O)c2ccccc2NC(=O)CN)ccc1Oc1ncc(Br)cn1	11000
CCOc1ccc2nc(NCCNC(=O)Nc3cccc(C)c3)c(C#N)cc2c1	4010
CC(C)n1cc(NC(=O)c2cc(-c3ccccc3)on2)cn1	1230
COc1ccc(F)cc1-c1cc(NC(C)=O)c2ncc(-c3cc(OC)c(OC)c(OC)c3)n2c1	11300
O=C(N/N=C/c1c(-c2ccccc2)[nH]c2ccccc12)c1cccnc1	117
Cc1ccc(C2=NN(C(=O)CSc3nccn3C)C(c3ccco3)C2)cc1 (configuration not stated)	6070
Cc1ccc2c(c1)C(=O)N1[C@H]3c4cc(C)ccc4OC[C@@H]3[C@H](c3ccccc3)[C@]1(C)C(=O)N2	26.4
COc1cc(NC(=O)c2noc(C)c2[N+](=O)[O-])c(OC)cc1Cl	632
C[C@@]12C(=O)Nc3cc(F)ccc3C(=O)N1[C@H]1c3ccccc3OC[C@@H]1[C@@H]2c1ccccc1	1870
COc1ccccc1N1CCN(c2ccc3c(c2)S(=O)(=O)c2cccc(C(=O)NCC4CC4)c2C3=O)CC1	4550
O=C1NC(=O)N(c2ccccc2)C(=O)/C1=C\C=C\c1ccccc1	679
CN1CCN(C(c2ccc(Cl)cc2)c2cc(Cl)c3cccnc3c2O)CC1 (configuration not stated)	4040
CC(=O)C1=C(O)C(=O)N(c2ccc(Br)cn2)C1c1ccc(Br)cc1 (configuration not stated)	491
COc1ccc(/C=N\NC(=O)c2sccc2C)cc1Cn1nc(C)cc1C	507
